Reference: ChEMBL document CHEMBL3576767, “Neo-clerodane diterpenoids from Scutellaria barbata with activity against Epstein-Barr virus lytic replication” (J Nat Prod, 2015)
pEC50: −log10 of the molar value.

Experiments:
Human gammaherpesvirus 4 [1] = test: Antiviral activity against EBV infected in TPA and sodium butyrate-induced P3HR1 cells assessed as inhibition on EBV lytic replication at 20 uM incubated for 48 hrs by SYBR green dye based real-time PCR method; type: functional; settings: human gammaherpesvirus 4, P3HR-1, 48 h
Human gammaherpesvirus 4 [2] = test: Antiviral activity against EBV infected in TPA and sodium butyrate-induced P3HR1 cells assessed as inhibition on EBV lytic replication incubated for 48 hrs by SYBR green dye based real-time PCR method; type: functional, organism-based; settings: human gammaherpesvirus 4, P3HR-1, 48 h
[3] = Cytotoxicity against human P3HR1 cells assessed as reduction in cell viability incubated for 48 hrs by trypan blue dye exclusion assay; type: cell-based, P3HR-1
[4] = Selectivity index, ratio of CC50 for human P3HR1 cells to EC50 for EBV infected in TPA and sodium butyrate-induced P3HR1 cells; parameters: species or system P3HR-1

Compound	inhibition at 20 µM (Human gammaherpesvirus 4 [1]) [%]	pEC50 (Human gammaherpesvirus 4 [2])	CC50 at 48 h [3] [µM]	Ratio CC50/EC50 [4]
CC(=O)O[C@H]1[C@H](OC(=O)c2cccnc2)[C@@]2(C)C(C)=CCC[C@@H]2[C@@](C)(/C=C/C2=CC(=O)OC2)[C@@]1(C)O	< 50			
CC1=CCC[C@H]2[C@@]1(C)[C@@H](OC(=O)c1ccccc1)[C@H](OC(=O)C(C)C)[C@](C)(O)[C@]2(C)/C=C/C1=CC(=O)OC1	> 50	5.04	49.7	5.4
CC(=O)OC(C(=O)O[C@H]1[C@H](OC(=O)c2ccccc2)[C@@]2(C)C(C)=CCC[C@@H]2[C@@](C)(/C=C/C2=CC(=O)OC2)[C@@]1(C)O)C(C)C (some centres not stated)	> 50	5.49	148	46.1
CC(=O)O[C@@H](CC1=CC(=O)OC1)[C@]1(C)[C@H]2CCC=C(C)[C@]2(C)[C@@H](OC(=O)c2ccccc2)[C@H](O)[C@]1(C)O	> 50	5.06	37.8	4.3
CC1=CCC[C@H]2[C@@]1(C)[C@@H](OC(=O)c1ccccc1)[C@H](O)[C@]1(C)O[C@]3(COC(=O)C3)C[C@H](OC(=O)c3ccccc3)[C@]21C	> 50	4.74	66.5	3.6
CC1=CCC[C@H]2[C@@]1(C)[C@@H](OC(=O)c1ccccc1)[C@H](O)[C@]1(C)O[C@]3(COC(=O)[C@@H]3O)C[C@H](OC(=O)c3ccccc3)[C@]21C	> 50	5.28	15.1	2.9
CC1=CCC[C@H]2[C@@]1(C)[C@@H](OC(=O)c1ccccc1)[C@H](OC(=O)c1cccnc1)[C@](C)(O)[C@]2(C)/C=C/C1=CC(=O)OC1	> 50	4.63	1440	61.1
CC1=CCC[C@H]2[C@@]1(C)[C@@H](OC(=O)c1ccccc1)[C@H](OC(=O)c1ccccc1)[C@](C)(O)[C@]2(C)/C=C/C1=CC(=O)OC1	> 50	4.84	30	2.1
CC(=O)OC(C(=O)O[C@H]1[C@H](OC(=O)c2cccnc2)[C@@]2(C)C(C)=CCC[C@@H]2[C@@](C)(/C=C/C2=CC(=O)OC2)[C@@]1(C)O)C(C)C (some centres not stated)	> 50	4.73	307	16.4
CC1=CCC[C@H]2[C@@]1(C)[C@@H](OC(=O)c1ccccc1)[C@H](O)[C@](C)(O)[C@]2(C)/C=C/C1=CC(=O)OC1	> 50	5.04	68.3	7.5
CC(=O)O[C@H]1[C@H](OC(C)=O)[C@]2(C)O[C@]3(CC[C@]2(C)[C@H]2[C@H](OC(=O)c4ccccc4)CC=C(C)[C@]12C)COC(=O)C3	> 50	4.89	738	57.2
CC(=O)O[C@H]1[C@H](OC(=O)c2cccnc2)[C@@]2(C)C(C)=CC[C@@H](OC(=O)c3cccnc3)[C@@H]2[C@@]2(C)CC[C@]3(COC(=O)C3)O[C@@]12C	> 50	4.79	1790	109.2
C=CC(C)(C)c1cc2cc3c(cc2oc1=O)O[C@H](C(C)(C)OC(C)=O)C3		5.27	> 150	>39.6
CC(=O)O[C@H]1[C@H](OC(=O)C(C)C)[C@](C)(O)[C@](C)(/C=C/C2=CC(=O)OC2)[C@H]2CCC=C(C)[C@]12C	< 50			
CC1=CCC[C@H]2[C@@]1(C)[C@@H](OC(=O)c1cccnc1)[C@H](OC(=O)C(C)C)[C@](C)(O)[C@]2(C)/C=C/C1=CC(=O)OC1	< 50			
CC(=O)O[C@H]1[C@H](OC(=O)c2ccccc2)[C@](C)(O)[C@](C)(/C=C/C2=CC(=O)OC2)[C@H]2CCC=C(C)[C@]12C	< 50			
CC(=O)O[C@@H](CC1=CC(=O)OC1)[C@]1(C)[C@H]2CCC=C(C)[C@]2(C)[C@@H](OC(C)=O)[C@H](OC(=O)C(C)C)[C@]1(C)O	< 50			
CC(=O)O[C@@H](CC1=CC(=O)OC1)[C@]1(C)[C@H]2CCC=C(C)[C@]2(C)[C@@H](OC(=O)c2cccnc2)[C@H](OC(=O)C(C)C)[C@]1(C)O	< 50			
CC(=O)O[C@@H](CC1=CC(=O)OC1)[C@]1(C)[C@H]2CCC=C(C)[C@]2(C)[C@@H](OC(C)=O)[C@H](OC(C)=O)[C@]1(C)O	< 50			
CC(=O)O[C@@H](CC1=CC(=O)OC1)[C@]1(C)[C@H]2CCC=C(C)[C@]2(C)[C@@H](OC(=O)c2cccnc2)[C@H](OC(=O)c2cccnc2)[C@]1(C)O	< 50			
C=C1[C@@H](O)CC[C@H]2[C@@]1(C)[C@@H](OC(=O)c1ccccc1)[C@H](OC(=O)c1ccccc1)[C@](C)(O)[C@]2(C)/C=C/C1=CC(=O)OC1	< 50			
CC(=O)O[C@H]1[C@H](OC(C)=O)[C@](C)(O)[C@](C)(/C=C/C2=CC(=O)OC2)[C@H]2CCC=C(C)[C@]12C	< 50			
CC1=CCC[C@H]2[C@@]1(C)[C@@H](OC(=O)c1cccnc1)[C@H](OC(=O)c1cccnc1)[C@](C)(O)[C@]2(C)/C=C/C1=CC(=O)OC1	< 50			
CC(=O)O[C@H]1[C@H](OC(C)=O)[C@]2(C)O[C@]3(CC[C@]2(C)[C@H]2[C@H](OC(=O)c4cccnc4)CC=C(C)[C@]12C)COC(=O)C3	< 50			
CC(=O)O[C@H]1[C@H](OC(=O)c2cccnc2)[C@@]2(C)C(C)=CCC[C@@H]2[C@@]2(C)[C@@H](OC(=O)c3cccnc3)C[C@@]3(COC(=O)C3)O[C@@]12C	< 50			
CC1=CCC[C@H]2[C@@]1(C)[C@@H](OC(=O)c1cccnc1)[C@H](OC(=O)c1cccnc1)[C@]1(C)O[C@]3(COC(=O)C3)C[C@H](OC(=O)c3cccnc3)[C@]21C	< 50			
CC(=O)O[C@@H](CC1=CC(=O)OC1)[C@]1(C)[C@H]2CCC=C(C)[C@]2(C)[C@@H](OC(=O)c2cccnc2)[C@H](OC(=O)c2ccccc2)[C@]1(C)O [BARBATELLARINES B]	< 50			
